We go through 3 compounds from PMC10465233, “Lys-urea-Aad, Lys-urea-Cmc and Lys-urea-Cms as potential pharmacophores for the design of PSMA-targeted radioligands to reduce off-target uptake in kidneys and salivary glands” (Theranostics, 2023).

Molecules are shown by their SMILES. Where two headings read alike, the source gives them in different places.

On the set-up of data set [1]: method as in earlier work. Particulars: cited from earlier work.
Data set [2] deals with LNCaP tumor-bearing mice. Nature of the data set: Radioligand therapy study in LNCaP tumor-bearing mice. The format is in vivo, mouse. The note with it: 37 MBq injected. As to the method:
Imaging, biodistribution and radioligand therapy experiments were performed following previously published procedures using male NOD-scid IL2Rg^null (NSG) or NOD.Cg-Rag1^tm1MomIl2rg^tm1Wjl/SzJ (NRG) mice [10]-[12],[14]-[15]. The experiments were conducted according to the guidelines established by the Canadian Council on Animal Care and approved by Animal Ethics Committee of the University of British Columbia. The mice were briefly sedated by inhalation of 2% isoflurane in oxygen, and implanted subcutaneously with 1×10^7 LNCaP cells behind the left shoulder. The mice were imaged or used in biodistribution studies when the tumor grew to 5-8 mm in diameter over a period of 4-5 weeks.
For radiotherapy study, tumor-bearing mice were injected with saline (the control group), [^177Lu]Lu-PSMA-617 (37 MBq) or [^177Lu]-HTK03170 (37, 18.5 and 9.3 MBq) (n = 7-8 per treatment group). Tumor size and body weight were measured twice a week from the date of injection (Day 0) until completion of the study (Day 180). Endpoint criteria were defined as > 20% weight loss, tumor volume > 1000 mm^3, or active ulceration of the tumor.

In data set [3] the test system is LNCaP tumor-bearing mice. Particulars: cited from earlier work; for Kidney uptake / Tumor uptake / Salivary gland uptake: 1 h post-injection; for Salivary gland uptake: unreported data in b5.
Where [4] appears, read: vs Glu-containing [^68Ga]Ga-HTK03041, 1 h post-injection.

Regarding `O=C([O-])CN1CCN(CC(=O)[O-])CCN(CC(=O)NCC2CCC(C(=O)NC(Cc3ccc4ccccc4c3)C(=O)NCCCCC(NC(=O)NC(CCC(=O)O)C(=O)O)C(=O)O)CC2)CCN(CC(=O)[O-])CC1.[177Lu+3]` (stereo not shown) [[^177Lu]Lu-PSMA-617], the Kinetics value in data set [1] (source organ Brain) is on record as 6.64E-03 MBq-h/MBq; in data set [1] (source organ Heart), 3.28E-03 MBq-h/MBq; in data set [1] (source organ Kidneys), 8.23E-01 MBq-h/MBq; in data set [1] (source organ Large intestine contents), 8.80E-03 MBq-h/MBq; in data set [1] (source organ Liver), 6.38E-02 MBq-h/MBq; in data set [1] (source organ Lungs), 4.85E-03 MBq-h/MBq. Also, the Kinetics value in data set [1] (source organ Pancreas) was 4.76E-03 MBq-h/MBq; in data set [1] (source organ Remainder of the body), 1.68E-01 MBq-h/MBq; in data set [1] (source organ Small intestine), 2.63E-02 MBq-h/MBq; in data set [1] (source organ Spleen), 1.41E-02 MBq-h/MBq; in data set [1] (source organ Stomach) it was 2.34E-04 MBq-h/MBq; in data set [1] (source organ Testes), 4.23E-03 MBq-h/MBq. For the same compound, the Kinetics value was 4.01E-04 MBq-h/MBq in data set [1] (source organ Thyroid) and 8.04E-01 MBq-h/MBq in data set [1] (source organ Urinary bladder). The Median survival in the data set with LNCaP tumor-bearing mice [2] came to 63 days.
As to `O=C([O-])CN1CCN(CC(=O)[O-])CCN(CC(=O)NCC2CCC(C(=O)NC(Cc3c4ccccc4cc4ccccc34)C(=O)NCCCCC(NC(=O)NC(CCCC(=O)O)C(=O)O)C(=O)O)CC2)CCN(CC(=O)[O-])CC1.[68Ga+3]` (stereo not shown) [[^68Ga]Ga-HTK03149], in the data set with LNCaP tumor-bearing mice [3], the Kidney uptake is given as 4.15±1.46 %ID/g, the Tumor uptake is recorded as 19.1±6.37 %ID/g and the Salivary gland uptake is given as 0.22±0.06 %ID/g. For the same compound, the Tumor uptake in the data set on LNCaP tumor-bearing mice [3] (listed as [^68Ga]HTK03149) is recorded as ~ 20 %ID/g. In the data set with LNCaP tumor-bearing mice [3] (setting [4]), the “Reduction in kidney uptake” value was greater than 95% and the “Reduction in salivary gland uptake” value is listed as greater than 95%.
As for `O=C([O-])CN1CCN(CC(=O)[O-])CCN(CC(=O)NCC2CCC(C(=O)NC(Cc3c4ccccc4cc4ccccc34)C(=O)NCCCCC(NC(=O)NC(CCC(=O)O)C(=O)O)C(=O)O)CC2)CCN(CC(=O)[O-])CC1.[68Ga+3]` (stereo not shown) [[^68Ga]Ga-HTK03141], in the data set on LNCaP tumor-bearing mice [3], the Kidney uptake is reported as 170±26.4 %ID/g, the Tumor uptake is reported as 23.1±6.11 %ID/g, the Salivary gland uptake is 4.99±0.88 %ID/g and the Peaked tumor uptake is reported as 23.1 %ID/g.
